Reference: ChEMBL document CHEMBL4321845, “Discovery and Characterization of Potent Pan-Genotypic HCV NS5A Inhibitors Containing Novel Tricyclic Central Core Leading to Clinical Candidate” (J Med Chem, 2019)

How the values were obtained:
[1] = Cytotoxicity in human HEK293 cells assessed as inhibition of cell growth at 10 uM incubated for 72 hrs by CCK8 assay relative to control; assay type: cell-based; settings: read-out: GI
[2] = AUC (last) in rat at 10 mg/kg, po measured up to 24 hrs by LC-MS/MS analysis; assay type: ADME, organism-based; set-up: dose 10 mg/kg, time 0 - last, route oral; settings: in vivo
[3] = Drug level in plasma of Wistar rat at 10 mg/kg, po measured at 4 hrs by LC-MS/MS analysis; assay type: ADME, organism-based
[4] = Volume of distribution at steady state in rat at 1 mg/kg, iv measured up to 24 hrs by LC-MS/MS analysis; assay type: ADME, organism-based; settings: in vivo, read-out: Vdss
[5] = Ratio of dug level in liver to plasma of Wistar rat at 10 mg/kg, po measured at 4 hrs by LC-MS/MS analysis; assay type: ADME, organism-based
[6] = Drug metabolism in rat liver microsomes assessed as metabolic rate at 1 uM preincubated for 5 mins before NADPH addition and measured up to 30 mins by LC-MS/MS analysis; assay type: ADME, Microsome; settings: 0.5 h
[7] = AUC (last) in rat at 100 mg/kg, po measured up to 24 hrs by LC-MS/MS analysis; assay type: ADME, organism-based; set-up: dose 100 mg/kg, time 0 - last, route oral; settings: in vivo
[8] = Cytotoxicity in human HepG2 cells assessed as inhibition of cell growth at 10 uM incubated for 72 hrs by CCK8 assay relative to control; assay type: cell-based; settings: read-out: GI
[9] = AUC (last) in rat at 30 mg/kg, po measured up to 24 hrs by LC-MS/MS analysis; assay type: ADME, organism-based; set-up: dose 30 mg/kg, time 0 - last, route oral; settings: in vivo
[10] = Drug level in liver of Wistar rat at 10 mg/kg, po measured up to 8 hrs by LC-MS/MS analysis; assay type: ADME, organism-based; settings: in vivo
[11] = Oral bioavailability in rat at 10 mg/kg measured up to 24 hrs by LC-MS/MS analysis; assay type: ADME, organism-based; settings: in vivo
[12] = Cmax in beagle dog at 100 mg/kg, po measured up to 24 hrs by LC-MS/MS analysis; assay type: ADME, organism-based, Canis lupus familiaris; set-up: dose 100 mg/kg, route oral; settings: in vivo
[13] = Drug level in liver of Wistar rat at 10 mg/kg, po measured at 4 hrs by LC-MS/MS analysis; assay type: ADME, organism-based; settings: read-out: Drug uptake
[14] = Tmax in rat at 10 mg/kg, po measured up to 24 hrs by LC-MS/MS analysis; assay type: ADME, organism-based; settings: in vivo
[15] = Volume of distribution at steady state in beagle dog at 1 mg/kg, iv measured up to 24 hrs by LC-MS/MS analysis; assay type: ADME, organism-based, Canis lupus familiaris; settings: in vivo, read-out: Vdss
[16] = Cmax in beagle dog at 10 mg/kg, po measured up to 24 hrs by LC-MS/MS analysis; assay type: ADME, organism-based, Canis lupus familiaris; set-up: dose 10 mg/kg, route oral; settings: in vivo
[17] = Protein binding in human plasma; assay type: ADME, cell-free; settings: read-out: PPB
[18] = Cytotoxicity in human HEK293 cells assessed as inhibition of cell growth at 3 uM incubated for 72 hrs by CCK8 assay relative to control; assay type: cell-based; settings: read-out: GI
[19] = Half life in rat at 1 mg/kg, iv measured up to 24 hrs by LC-MS/MS analysis; assay type: ADME, organism-based; settings: in vivo
[20] = Clearance in rat at 1 mg/kg, iv measured up to 24 hrs by LC-MS/MS analysis; assay type: ADME, organism-based; settings: in vivo
[21] = AUC(last) in beagle dog at 1 mg/kg, iv measured up to 24 hrs by LC-MS/MS analysis; assay type: ADME, organism-based, Canis lupus familiaris; set-up: dose 1 mg/kg, route intravenous, time 0 - last; settings: in vivo
[22] = Tmax in rat at 30 mg/kg, po measured up to 24 hrs by LC-MS/MS analysis; assay type: ADME, organism-based; settings: in vivo
[23] = Cytotoxicity in human HuH7 cells assessed as inhibition of cell growth at 3 uM incubated for 72 hrs by CCK8 assay relative to control; assay type: cell-based, Huh-7; settings: read-out: GI
[24] = Oral bioavailability in beagle dog at 10 mg/kg measured up to 24 hrs by LC-MS/MS analysis; assay type: ADME, organism-based, Canis lupus familiaris; settings: in vivo
CYP3A4 = CYP3A4 (Homo sapiens, UniProt P08684); experiment: Inhibition of CYP3A4 in pooled human liver microsomes at 10 uM pre-incubated for 5 mins before NADPH addition and measured after 10 mins by UPLC-MS/MS analysis relative to control; assay type: ADME
CYP2C9 = CYP2C9 (Homo sapiens, UniProt P11712); experiment: Inhibition of CYP2C9 in pooled human liver microsomes at 10 uM pre-incubated for 5 mins before NADPH addition and measured after 10 mins by UPLC-MS/MS analysis relative to control; assay type: ADME
[25] = Cmax in beagle dog at 30 mg/kg, po measured up to 24 hrs by LC-MS/MS analysis; assay type: ADME, organism-based, Canis lupus familiaris; set-up: dose 30 mg/kg, route oral; settings: in vivo
[26] = Cmax in rat at 10 mg/kg, po measured up to 24 hrs by LC-MS/MS analysis; assay type: ADME, organism-based; set-up: dose 10 mg/kg, route oral; settings: in vivo
CYP2D6 = CYP2D6 (Homo sapiens, UniProt P10635); experiment: Inhibition of CYP2D6 in pooled human liver microsomes at 10 uM pre-incubated for 5 mins before NADPH addition and measured after 10 mins by UPLC-MS/MS analysis relative to control; assay type: ADME
[27] = Protein binding in rat plasma; assay type: ADME, cell-free; settings: read-out: PPB
[28] = Cmax in rat at 100 mg/kg, po measured up to 24 hrs by LC-MS/MS analysis; assay type: ADME, organism-based; set-up: dose 100 mg/kg, route oral; settings: in vivo
[29] = Tmax in beagle dog at 100 mg/kg, po measured up to 24 hrs by LC-MS/MS analysis; assay type: ADME, organism-based, Canis lupus familiaris; settings: in vivo
[30] = Tmax in beagle dog at 10 mg/kg, po measured up to 24 hrs by LC-MS/MS analysis; assay type: ADME, organism-based, Canis lupus familiaris; settings: in vivo
[31] = Drug metabolism in human liver microsomes assessed as metabolic rate at 1 uM preincubated for 5 mins before NADPH addition and measured up to 30 mins by LC-MS/MS analysis; assay type: ADME, Microsome; settings: 0.5 h
[32] = AUC (last) in beagle dog at 10 mg/kg, po measured up to 24 hrs by LC-MS/MS analysis; assay type: ADME, organism-based, Canis lupus familiaris; set-up: dose 10 mg/kg, time 0 - last, route oral; settings: in vivo
[33] = Cytotoxicity in human HuH7 cells assessed as inhibition of cell growth at 10 uM incubated for 72 hrs by CCK8 assay relative to control; assay type: cell-based, Huh-7; settings: read-out: GI
[34] = Half life in beagle dog at 1 mg/kg, iv measured up to 24 hrs by LC-MS/MS analysis; assay type: ADME, organism-based, Canis lupus familiaris; settings: in vivo
[35] = Clearance in beagle dog at 1 mg/kg, iv measured up to 24 hrs by LC-MS/MS analysis; assay type: ADME, organism-based, Canis lupus familiaris; settings: in vivo
[36] = Tmax in rat at 100 mg/kg, po measured up to 24 hrs by LC-MS/MS analysis; assay type: ADME, organism-based; settings: in vivo
[37] = Cytotoxicity in human HepG2 cells assessed as inhibition of cell growth at 3 uM incubated for 72 hrs by CCK8 assay relative to control; assay type: cell-based; settings: read-out: GI
[38] = AUC (last) in beagle dog at 100 mg/kg, po measured up to 24 hrs by LC-MS/MS analysis; assay type: ADME, organism-based, Canis lupus familiaris; set-up: dose 100 mg/kg, route oral, time 0 - last; settings: in vivo
[39] = Cmax in rat at 30 mg/kg, po measured up to 24 hrs by LC-MS/MS analysis; assay type: ADME, organism-based; set-up: dose 30 mg/kg, route oral; settings: in vivo
[40] = Tmax in beagle dog at 30 mg/kg, po measured up to 24 hrs by LC-MS/MS analysis; assay type: ADME, organism-based, Canis lupus familiaris; settings: in vivo
[41] = AUC(last) in rat at 1 mg/kg, iv measured up to 24 hrs by LC-MS/MS analysis; assay type: ADME, organism-based; set-up: dose 1 mg/kg, route intravenous, time 0 - last; settings: in vivo
[42] = AUC (last) in beagle dog at 30 mg/kg, po measured up to 24 hrs by LC-MS/MS analysis; assay type: ADME, organism-based, Canis lupus familiaris; set-up: dose 30 mg/kg, route oral, time 0 - last; settings: in vivo
[43] = Toxicity in beagle dog assessed as induction of emesis at 10 mg/kg measured up to 24 hrs; assay type: organism-based, Canis lupus familiaris; settings: in vivo

Chain of CYP3A4 (P08684 whole entry): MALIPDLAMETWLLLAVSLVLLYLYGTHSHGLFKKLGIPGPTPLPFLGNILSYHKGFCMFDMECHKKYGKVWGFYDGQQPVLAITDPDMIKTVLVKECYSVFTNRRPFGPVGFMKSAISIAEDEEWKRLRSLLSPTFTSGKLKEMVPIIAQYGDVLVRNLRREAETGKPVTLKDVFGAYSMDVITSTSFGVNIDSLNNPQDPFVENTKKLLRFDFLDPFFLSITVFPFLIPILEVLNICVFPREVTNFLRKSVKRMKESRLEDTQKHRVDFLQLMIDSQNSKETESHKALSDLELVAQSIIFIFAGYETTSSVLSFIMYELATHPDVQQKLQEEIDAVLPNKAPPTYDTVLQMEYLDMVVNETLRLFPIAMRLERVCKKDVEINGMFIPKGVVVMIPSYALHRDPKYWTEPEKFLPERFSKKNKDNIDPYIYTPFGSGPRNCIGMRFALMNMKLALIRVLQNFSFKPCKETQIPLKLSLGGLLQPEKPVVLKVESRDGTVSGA
Chain of CYP2D6 (P10635 whole entry): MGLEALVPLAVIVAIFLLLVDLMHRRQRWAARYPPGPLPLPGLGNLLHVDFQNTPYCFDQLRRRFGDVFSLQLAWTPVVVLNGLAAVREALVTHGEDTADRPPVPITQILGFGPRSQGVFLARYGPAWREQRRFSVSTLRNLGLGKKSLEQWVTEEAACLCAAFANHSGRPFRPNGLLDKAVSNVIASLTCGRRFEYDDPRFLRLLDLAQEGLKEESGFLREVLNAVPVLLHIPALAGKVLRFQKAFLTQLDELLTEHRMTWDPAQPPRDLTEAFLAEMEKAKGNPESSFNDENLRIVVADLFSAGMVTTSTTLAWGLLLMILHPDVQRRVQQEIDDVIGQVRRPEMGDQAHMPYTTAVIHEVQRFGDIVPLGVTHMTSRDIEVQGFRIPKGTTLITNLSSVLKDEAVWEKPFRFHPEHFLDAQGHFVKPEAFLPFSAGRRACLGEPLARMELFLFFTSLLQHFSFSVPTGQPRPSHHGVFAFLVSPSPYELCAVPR
Chain of CYP2C9 (P11712 whole entry): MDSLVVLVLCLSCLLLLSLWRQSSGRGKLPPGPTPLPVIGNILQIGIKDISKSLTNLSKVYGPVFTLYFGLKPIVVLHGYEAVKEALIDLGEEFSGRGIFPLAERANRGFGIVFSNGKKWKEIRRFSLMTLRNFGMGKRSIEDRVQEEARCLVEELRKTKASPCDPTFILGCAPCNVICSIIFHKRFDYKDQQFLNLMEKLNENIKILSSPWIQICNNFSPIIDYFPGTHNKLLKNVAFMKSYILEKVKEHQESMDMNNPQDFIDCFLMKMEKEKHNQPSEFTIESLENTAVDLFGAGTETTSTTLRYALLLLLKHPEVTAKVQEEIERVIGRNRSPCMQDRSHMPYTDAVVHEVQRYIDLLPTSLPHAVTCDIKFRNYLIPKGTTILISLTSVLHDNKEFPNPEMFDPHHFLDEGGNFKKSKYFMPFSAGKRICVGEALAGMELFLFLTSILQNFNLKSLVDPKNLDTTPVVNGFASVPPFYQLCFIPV

Structure (SMILES): COC(=O)N[C@H](C(=O)N1CCC[C@H]1c1ncc(-c2ccc3c(ccc4cc(-c5cnc([C@@H]6CCCN6C(=O)[C@@H](NC(=O)OC)C(C)C)[nH]5)sc43)c2)[nH]1)C(C)C
- inhibition at 72 h, 10 µM [1]: 36%
- AUC(0-t) at 24 h [2]: 4 to 6 µM·h
- concentration at 4 h [3]: 0.6 µM
- Vd [4]: 2 L/kg
- Kp at 4 h [5]: 14.5
- Drug metabolism [6]: 0.01 nmol/min/mg
- AUC(0-t) at 24 h [7]: 127 µM·h
- inhibition at 72 h, 10 µM [8]: 22%
- AUC(0-t) at 24 h [9]: 24 µM·h
- Drug uptake [10]: Active
- bioavailability [11]: 30%
- Cmax [12]: 17 µM
- concentration at 4 h [13]: 8.5 µM
- Tmax [14]: 4 to 6 h
- Vd [15]: 2 L/kg
- Cmax [16]: 5 µM
- fraction unbound [17]: < 0.01
- inhibition at 72 h, 3 µM [18]: 0%
- half-life [19]: 2 h
- clearance [20]: 11 mL/min/kg
- AUC(0-t) at 24 h [21]: 3 µM·h
- Tmax [22]: 4 to 6 h
- inhibition at 72 h, 3 µM [23]: 0%
- bioavailability [24]: 100%
- inhibition at 10 min, 10 µM (CYP3A4): 12%
- inhibition at 10 min, 10 µM (CYP2C9): 42%
- Cmax [25]: 10 µM
- Cmax [26]: 0.9 to 1 µM
- inhibition at 10 min, 10 µM (CYP2D6): 12%
- fraction unbound [27]: < 0.01
- Cmax [28]: 15 µM
- Tmax [29]: 3 h
- Tmax [30]: 1 h
- Drug metabolism [31]: 0.04 nmol/min/mg
- AUC(0-t) at 24 h [32]: 49 µM·h
- inhibition at 72 h, 10 µM [33]: 14%
- half-life [34]: 4 h
- clearance [35]: 6 mL/min/kg
- Tmax [36]: 4 to 6 h
- inhibition at 72 h, 3 µM [37]: 3%
- AUC(0-t) at 24 h [38]: 179 µM·h
- Cmax [39]: 3 µM
- Tmax [40]: 4 h
- AUC(0-t) at 24 h [41]: 2 µM·h
- AUC(0-t) at 24 h [42]: 86 µM·h

Structure (SMILES): COC(=O)N[C@H](C(=O)N1CCC[C@H]1c1ncc(-c2ccc3c(c2)CCc2cc(-c4cnc([C@@H]5CCCN5C(=O)[C@@H](NC(=O)OC)C(C)C)[nH]4)sc2-3)[nH]1)C(C)C
- inhibition at 72 h, 10 µM [1]: 28%
- AUC(0-t) at 24 h [2]: 6 to 24 µM·h
- concentration at 4 h [3]: 1.25 µM
- Vd [4]: 1.1 L/kg
- Activity [43]: Toxic
- Kp at 4 h [5]: 6
- Drug metabolism [6]: 0.01 nmol/min/mg
- AUC(0-t) at 24 h [7]: 468 µM·h
- inhibition at 72 h, 10 µM [8]: 6%
- AUC(0-t) at 24 h [9]: 77 µM·h
- Drug uptake [10]: Active
- bioavailability [11]: 30%
- concentration at 4 h [13]: 7.4 µM
- Tmax [14]: 0.25 to 2 h
- Vd [15]: 1 L/kg
- Cmax [16]: 6 µM
- fraction unbound [17]: < 0.01
- inhibition at 72 h, 3 µM [18]: 2%
- half-life [19]: 1.5 h
- clearance [20]: 10 mL/min/kg
- AUC(0-t) at 24 h [21]: 4 µM·h
- Tmax [22]: 1 to 4 h
- inhibition at 72 h, 3 µM [23]: 2%
- bioavailability [24]: 37 to 100%
- inhibition at 10 min, 10 µM (CYP3A4): 56%
- inhibition at 10 min, 10 µM (CYP2C9): 35%
- Cmax [26]: 1.6 to 6 µM
- inhibition at 10 min, 10 µM (CYP2D6): 36%
- fraction unbound [27]: < 0.01
- Cmax [28]: 43 µM
- Drug metabolism [31]: 0.01 nmol/min/mg
- AUC(0-t) at 24 h [32]: 11 to 93 µM·h
- half-life [34]: 4 h
- clearance [35]: 5 mL/min/kg
- Tmax [36]: 2 to 4 h
- inhibition at 72 h, 3 µM [37]: 0%
- Cmax [39]: 14 µM
- AUC(0-t) at 24 h [41]: 2 µM·h
